# Read-outs that look alike come from different tables or passages of the source.
# Experiments:
# ROCK1 = molecular target: T1, ROCK1 (Homo sapiens, UniProt Q13464); experiment: Kinase-Glo luminescent protein kinase assay, ROCK1; assay type: biochemical; conditions: ROCK1 and ROCK2
# T1 construct: purchased Invitrogen/Life Technologies
# [1] = molecular target: T2, protein kinase C-theta (PKC-theta) (Homo sapiens, UniProt Q04759); experiment: Kinase-Glo luminescent protein kinase assay, PKC-theta; assay type: biochemical; conditions: average of ≥3 replicate experiments; read-out: PKCT Ki
# T2 construct: purchased Invitrogen/Life Technologies
# [2] = molecular target: T3, myotonic dystrophy kinase-related CDC42-binding kinase alpha (MRCKA) (Homo sapiens, UniProt Q5VT25); experiment: Kinase-Glo luminescent protein kinase assay, MRCKA; assay type: biochemical; conditions: average of ≥3 replicate experiments
# T3 construct: purchased Upstate
# [3] = molecular target: T4, calcium/calmodulin-dependent protein kinase II Alpha (CAMK2A) (Homo sapiens, UniProt Q9UQM7); experiment: Kinase-Glo luminescent protein kinase assay, CAMK2A; assay type: biochemical; conditions: average of ≥3 replicate experiments; read-out: CAM2A Ki
# T4 construct: purchased Invitrogen/Life Technologies
# [4] = test system: primary porcine TM (PTM) cells; experiment: Disruption of actin stress fibers, high-content screening; assay type: cell-based; conditions: for IC50: Sus scrofa, 6 h incubation, read-out: PTM IC50 (disruption of actin stress fibers)
# [5] = test system: transformed human TM (HTM) cells (TM-1); experiment: Disruption of focal adhesions, high-content screening; assay type: cell-based; conditions: 6 h incubation, read-out: HTM IC50 (disruption of focal adhesions)
# [6] = molecular target: norepinephrine transporter (NET) (Homo sapiens, UniProt P23975); experiment: NET inhibitory activity (data not shown)
# mouse eyes = conditions: eyes perfused ∼1 h, cited from earlier work
# human donor eyes = conditions: perfused for 3 h; cited from earlier work
# [7] = Absorption and distribution of radioactivity after single topical ocular dose; assay type: in vivo, Dutch Belted rabbits; conditions: for AUClast / Cmax / T1/2,e / Tmax: 14C-netarsudil 0.02% single topical ocular dose
# Experimental: A single topical ocular dose of 0.02% ^14C-netarsudil mesylate (35 μL drop) was administered to both eyes of 3 male Dutch Belted rabbits in each of 7 groups. At 0.25, 0.5, 1, 4, 8, 24, and 48 h postdose, the following samples were harvested from each group: whole blood, derived plasma, AH, vitreous humor, cornea, conjunctiva, lens, iris/ciliary body, retina-choroid-plexus, liver, and kidneys. All samples were assayed for total radioactivity. A study of the same design was conducted for AR-12286, using a single topical ocular dose of 0.5% ^3H-AR-12286 (35 μL drop).
# [8] = test system: normotensive Dutch Belted rabbits; experiment: Ocular hypotensive activity (IOP) in rabbits
# [9] = test system: normotensive Formosan Rock monkeys; experiment: Ocular hypotensive activity (IOP) in monkeys; conditions: 0.5%, Day 3
# [10] = male, Dutch Belted, rabbit, in vivo, topical or ocular
# [11] = Aqueous humor, L eye, radioactivity
# [12] = Aqueous humor, R eye, radioactivity
# [13] = Conjuctiva, L eye, radioactivity
# [14] = Conjuctiva, R eye, radioactivity
# [15] = Iris-ciliary body, L eye, radioactivity
# [16] = Iris-ciliary body, R eye, radioactivity
# [17] = Retina-choroid-plexus, L eye, radioactivity
# [18] = Retina-choroid-plexus, R eye, radioactivity
# [19] = Vitreous humor, L eye, radioactivity
# [20] = Vitreous humor, R eye, radioactivity
# T4 sequence (Q9UQM7 whole entry): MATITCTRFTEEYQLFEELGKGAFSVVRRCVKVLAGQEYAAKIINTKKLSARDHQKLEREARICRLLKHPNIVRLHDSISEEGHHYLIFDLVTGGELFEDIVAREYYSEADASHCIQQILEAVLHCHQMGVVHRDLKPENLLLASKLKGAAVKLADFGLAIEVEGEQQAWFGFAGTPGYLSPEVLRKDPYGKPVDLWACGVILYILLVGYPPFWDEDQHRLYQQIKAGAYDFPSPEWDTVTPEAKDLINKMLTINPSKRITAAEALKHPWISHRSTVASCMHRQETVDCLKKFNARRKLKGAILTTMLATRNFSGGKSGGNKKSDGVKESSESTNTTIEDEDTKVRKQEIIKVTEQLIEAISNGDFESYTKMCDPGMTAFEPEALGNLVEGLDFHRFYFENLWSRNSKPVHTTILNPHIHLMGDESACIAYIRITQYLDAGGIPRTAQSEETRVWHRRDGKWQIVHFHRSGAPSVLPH
# T3 sequence (Q5VT25 whole entry): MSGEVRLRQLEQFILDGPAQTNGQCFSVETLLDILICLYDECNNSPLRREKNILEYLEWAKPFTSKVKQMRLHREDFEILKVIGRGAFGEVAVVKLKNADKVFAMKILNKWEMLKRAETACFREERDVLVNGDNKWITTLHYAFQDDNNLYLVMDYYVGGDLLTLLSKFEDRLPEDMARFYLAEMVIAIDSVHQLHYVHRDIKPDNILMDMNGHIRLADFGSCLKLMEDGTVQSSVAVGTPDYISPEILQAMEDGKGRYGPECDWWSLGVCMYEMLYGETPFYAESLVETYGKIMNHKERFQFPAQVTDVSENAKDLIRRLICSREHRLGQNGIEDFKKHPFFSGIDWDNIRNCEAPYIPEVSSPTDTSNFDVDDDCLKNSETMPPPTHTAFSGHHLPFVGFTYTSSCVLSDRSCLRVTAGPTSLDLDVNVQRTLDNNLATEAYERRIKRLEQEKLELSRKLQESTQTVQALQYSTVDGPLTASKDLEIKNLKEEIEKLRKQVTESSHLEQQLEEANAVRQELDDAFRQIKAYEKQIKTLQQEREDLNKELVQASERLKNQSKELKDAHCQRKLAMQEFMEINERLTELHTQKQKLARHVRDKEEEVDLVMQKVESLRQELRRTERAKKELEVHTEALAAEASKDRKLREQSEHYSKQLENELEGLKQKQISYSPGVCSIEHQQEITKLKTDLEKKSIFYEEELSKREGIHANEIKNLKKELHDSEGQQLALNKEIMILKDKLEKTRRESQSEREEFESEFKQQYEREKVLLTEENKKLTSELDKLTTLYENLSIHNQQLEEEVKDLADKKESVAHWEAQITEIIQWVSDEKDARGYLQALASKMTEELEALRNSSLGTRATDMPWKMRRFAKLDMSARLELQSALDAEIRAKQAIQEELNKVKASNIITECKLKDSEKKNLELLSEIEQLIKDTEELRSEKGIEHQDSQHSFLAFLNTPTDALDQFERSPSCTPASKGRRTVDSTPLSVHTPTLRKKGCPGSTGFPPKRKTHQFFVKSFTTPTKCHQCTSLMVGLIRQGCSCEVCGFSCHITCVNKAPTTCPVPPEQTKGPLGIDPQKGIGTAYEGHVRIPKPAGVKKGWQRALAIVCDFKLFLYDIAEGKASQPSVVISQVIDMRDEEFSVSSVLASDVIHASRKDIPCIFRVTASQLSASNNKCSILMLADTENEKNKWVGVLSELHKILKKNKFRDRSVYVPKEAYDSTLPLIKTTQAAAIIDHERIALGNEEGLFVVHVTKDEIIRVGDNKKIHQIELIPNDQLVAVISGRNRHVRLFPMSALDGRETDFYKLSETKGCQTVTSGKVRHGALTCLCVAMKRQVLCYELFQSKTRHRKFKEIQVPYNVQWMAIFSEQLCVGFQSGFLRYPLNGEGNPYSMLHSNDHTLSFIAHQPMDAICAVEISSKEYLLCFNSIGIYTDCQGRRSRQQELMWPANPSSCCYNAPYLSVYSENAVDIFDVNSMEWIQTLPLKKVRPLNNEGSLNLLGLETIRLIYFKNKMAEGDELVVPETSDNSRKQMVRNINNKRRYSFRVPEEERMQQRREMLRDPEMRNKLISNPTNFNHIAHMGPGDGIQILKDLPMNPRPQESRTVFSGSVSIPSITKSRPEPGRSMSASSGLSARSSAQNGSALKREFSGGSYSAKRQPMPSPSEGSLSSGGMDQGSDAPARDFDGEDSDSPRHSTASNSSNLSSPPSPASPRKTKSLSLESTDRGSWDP
# T2 sequence (Q04759 whole entry): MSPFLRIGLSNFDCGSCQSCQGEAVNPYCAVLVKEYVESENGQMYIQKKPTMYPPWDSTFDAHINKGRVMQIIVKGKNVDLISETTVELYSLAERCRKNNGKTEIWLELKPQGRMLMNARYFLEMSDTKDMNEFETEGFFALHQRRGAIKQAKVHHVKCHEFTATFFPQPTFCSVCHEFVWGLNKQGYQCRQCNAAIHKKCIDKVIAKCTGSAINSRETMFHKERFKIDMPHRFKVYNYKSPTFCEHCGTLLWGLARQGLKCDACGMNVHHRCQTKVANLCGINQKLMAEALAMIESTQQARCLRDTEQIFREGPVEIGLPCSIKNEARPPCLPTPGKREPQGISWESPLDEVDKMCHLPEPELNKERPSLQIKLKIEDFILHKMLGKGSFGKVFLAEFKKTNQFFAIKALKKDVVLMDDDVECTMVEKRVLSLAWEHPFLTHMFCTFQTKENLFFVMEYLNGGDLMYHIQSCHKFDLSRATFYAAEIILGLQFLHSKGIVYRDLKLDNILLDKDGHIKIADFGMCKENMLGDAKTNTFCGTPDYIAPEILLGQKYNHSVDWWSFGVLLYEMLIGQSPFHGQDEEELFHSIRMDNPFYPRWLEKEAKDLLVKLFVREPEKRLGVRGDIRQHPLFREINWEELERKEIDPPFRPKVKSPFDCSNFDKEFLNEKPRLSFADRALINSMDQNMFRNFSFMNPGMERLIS
# Sequence of norepinephrine transporter (NET) (P23975 whole entry, species assumed, the tested form may be a part): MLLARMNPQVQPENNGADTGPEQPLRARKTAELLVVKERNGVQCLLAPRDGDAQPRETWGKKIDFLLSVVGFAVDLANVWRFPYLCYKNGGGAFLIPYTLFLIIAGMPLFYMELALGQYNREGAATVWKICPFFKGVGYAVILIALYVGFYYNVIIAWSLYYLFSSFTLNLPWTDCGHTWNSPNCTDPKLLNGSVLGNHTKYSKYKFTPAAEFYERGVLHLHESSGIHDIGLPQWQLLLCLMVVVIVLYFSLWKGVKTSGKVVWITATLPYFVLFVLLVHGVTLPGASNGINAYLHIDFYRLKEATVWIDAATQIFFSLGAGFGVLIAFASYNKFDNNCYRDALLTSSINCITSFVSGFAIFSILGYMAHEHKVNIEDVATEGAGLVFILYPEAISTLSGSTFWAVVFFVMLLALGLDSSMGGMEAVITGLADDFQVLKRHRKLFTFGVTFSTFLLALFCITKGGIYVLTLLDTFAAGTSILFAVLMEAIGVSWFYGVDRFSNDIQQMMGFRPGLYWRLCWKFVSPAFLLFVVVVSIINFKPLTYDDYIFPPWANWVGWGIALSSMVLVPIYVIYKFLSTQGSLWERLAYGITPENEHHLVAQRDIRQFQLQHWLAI
# T1 sequence (Q13464 whole entry): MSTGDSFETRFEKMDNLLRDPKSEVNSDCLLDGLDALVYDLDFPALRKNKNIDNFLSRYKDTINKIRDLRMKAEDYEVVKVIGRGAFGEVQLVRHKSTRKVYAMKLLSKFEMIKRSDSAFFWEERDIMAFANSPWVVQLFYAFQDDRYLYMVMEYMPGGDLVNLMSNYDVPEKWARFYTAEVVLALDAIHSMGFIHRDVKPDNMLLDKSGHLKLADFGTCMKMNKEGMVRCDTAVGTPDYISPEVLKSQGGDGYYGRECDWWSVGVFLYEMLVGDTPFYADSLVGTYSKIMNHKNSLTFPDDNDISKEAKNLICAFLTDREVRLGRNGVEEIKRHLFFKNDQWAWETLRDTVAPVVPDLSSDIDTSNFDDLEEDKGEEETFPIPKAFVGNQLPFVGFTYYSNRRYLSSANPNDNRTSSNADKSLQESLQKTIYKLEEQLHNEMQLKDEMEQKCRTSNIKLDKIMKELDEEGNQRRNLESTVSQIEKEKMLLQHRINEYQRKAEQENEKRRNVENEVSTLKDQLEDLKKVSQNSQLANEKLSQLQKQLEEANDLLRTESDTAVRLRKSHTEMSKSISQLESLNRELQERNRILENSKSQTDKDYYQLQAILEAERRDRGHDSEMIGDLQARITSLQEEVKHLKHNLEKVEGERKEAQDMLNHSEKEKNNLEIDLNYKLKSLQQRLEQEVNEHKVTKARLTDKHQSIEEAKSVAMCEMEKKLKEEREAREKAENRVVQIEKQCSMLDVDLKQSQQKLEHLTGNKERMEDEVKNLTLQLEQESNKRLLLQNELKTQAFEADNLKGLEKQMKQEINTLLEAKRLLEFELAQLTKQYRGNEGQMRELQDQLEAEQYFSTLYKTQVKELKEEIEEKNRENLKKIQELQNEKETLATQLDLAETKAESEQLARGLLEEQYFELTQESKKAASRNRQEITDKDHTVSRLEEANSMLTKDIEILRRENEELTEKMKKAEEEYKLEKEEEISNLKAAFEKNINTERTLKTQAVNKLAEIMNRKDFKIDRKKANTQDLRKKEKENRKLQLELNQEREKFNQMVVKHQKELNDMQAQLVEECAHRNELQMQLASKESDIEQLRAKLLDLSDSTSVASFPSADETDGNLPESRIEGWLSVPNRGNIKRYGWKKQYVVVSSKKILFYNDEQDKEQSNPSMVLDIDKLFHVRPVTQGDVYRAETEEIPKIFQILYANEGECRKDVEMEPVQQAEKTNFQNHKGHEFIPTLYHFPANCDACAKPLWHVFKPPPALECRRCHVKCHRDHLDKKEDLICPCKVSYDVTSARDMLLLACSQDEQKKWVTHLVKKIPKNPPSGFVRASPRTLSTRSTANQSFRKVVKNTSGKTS
compound,measurement,setting,value
NC[C@@H](C(=O)Nc1ccc2cnccc2c1)c1ccc(CO)cc1 [Netarsudil-M1],fold greater activity against Rho kinase than netarsudil,ROCK1,5 fold
same,Ki,[1],0.027 µM
same,Ki,[2],0.007 µM
same,Ki,[3],13.7 µM
same,fold greater activity than netarsudil for disruption of actin stress fibers and focal adhesions,[4]; PTM and HTM cell-based assays,~5 fold
same,IC50,[4],0.022 µM
same,IC50,[5],0.003 µM
same,NET inhibitory activity,[6],does not inhibit NET
same,increase in outflow facility,mouse eyes; C57 mice,56%
same,increase in outflow facility,mouse eyes; CD1 mice,91%
same,increase in outflow facility relative to control eyes,human donor eyes,59.7%
"O=S(=O)(c1cccc2cnccc12)N1CCCNCC1 [Fasudil, reference compound]",IC50,[4],10.1 µM
same,IC50,[5],3.94 µM
CN(C)C(C(=O)Nc1ccc2c(=O)[nH]ccc2c1)c1ccsc1 (stereo not drawn) [AR-12286],Ki,[1],9.32 µM
same,Ki,[2],0.028 µM
same,Ki,[3],5.85 µM
same,IC50,[4],0.924 µM
same,IC50,[5],0.818 µM
same,"T1/2,e values",[7]; [10],9 to 41 h
same,Tmax in AH,[7]; [10],0.25 to 0.5 h
same,"terminal elimination half-life (T1/2,e) in AH",[7]; [10],9 to 11 h
same,IOP reduction,"[8]; 0.5%, 8 h after dosing on Day 3",2.9 ± 0.2 mmHg
same,time of peak IOP-lowering efficacy after dosing,[8]; Day 1,0.5 h
same,IOP reduction,[9]; 4 h after dosing,5.6 ± 0.3 mmHg
same,IOP reduction,[9]; 24 h after dosing,3.9 ± 0.3 mmHg
"CC(N)[C@H]1CC[C@H](C(=O)Nc2ccncc2)CC1 (stereo partly drawn) [Y27632, reference compound]",IC50,[4],9.97 µM
same,IC50,[5],1.74 µM
Cc1ccc(C(=O)OCc2ccc([C@@H]([14CH2]N)C(=O)Nc3ccc4cnccc4c3)cc2)c(C)c1 [^14C-Netarsudil],AUClast,[7]; [11],510 ng·eq·h/g
same,Cmax,[7]; [11],16 ng·eq/g
same,"T1/2,e",[7]; [11],17 h
same,Tmax,[7]; [11],8 h
same,AUClast,[7]; [12],613 ng·eq·h/g
same,Cmax,[7]; [12],23 ng·eq/g
same,"T1/2,e",[7]; [12],16 h
same,Tmax,[7]; [12],8 h
same,AUClast,"[7]; Blood, radioactivity",15 ng·eq·h/g
same,Cmax,"[7]; Blood, radioactivity",1 ng·eq/g
same,"T1/2,e","[7]; Blood, radioactivity",27 h
same,Tmax,"[7]; Blood, radioactivity",0.25 h
same,AUClast,[7]; [13],"9,525 ng·eq·h/g"
same,Cmax,[7]; [13],"2,442 ng·eq/g"
same,"T1/2,e",[7]; [13],13 h
same,Tmax,[7]; [13],0.25 h
same,AUClast,[7]; [14],"12,390 ng·eq·h/g"
same,Cmax,[7]; [14],"3,292 ng·eq/g"
same,"T1/2,e",[7]; [14],17 h
same,Tmax,[7]; [14],0.25 h
same,AUClast,"[7]; Cornea, L eye, radioactivity","63,387 ng·eq·h/g"
same,Cmax,"[7]; Cornea, L eye, radioactivity","3,666 ng·eq/g"
same,"T1/2,e","[7]; Cornea, L eye, radioactivity",14 h
same,Tmax,"[7]; Cornea, L eye, radioactivity",0.5 h
same,AUClast,"[7]; Cornea, R eye, radioactivity","69,605 ng·eq·h/g"
same,Cmax,"[7]; Cornea, R eye, radioactivity","3,972 ng·eq/g"
same,"T1/2,e","[7]; Cornea, R eye, radioactivity",13 h
same,Tmax,"[7]; Cornea, R eye, radioactivity",0.25 h
same,AUClast,[7]; [15],"10,845 ng·eq·h/g"
same,Cmax,[7]; [15],955 ng·eq/g
same,Tmax,[7]; [15],0.25 h
same,AUClast,[7]; [16],"11,555 ng·eq·h/g"
same,Cmax,[7]; [16],416 ng·eq/g
same,"T1/2,e",[7]; [16],112 h
same,Tmax,[7]; [16],8 h
same,AUClast,"[7]; Kidney, radioactivity",298 ng·eq·h/g
same,Cmax,"[7]; Kidney, radioactivity",19 ng·eq/g
same,"T1/2,e","[7]; Kidney, radioactivity",16 h
same,Tmax,"[7]; Kidney, radioactivity",1 h
same,AUClast,"[7]; Lens, L eye, radioactivity",33 ng·eq·h/g
same,Cmax,"[7]; Lens, L eye, radioactivity",2 ng·eq/g
same,"T1/2,e","[7]; Lens, L eye, radioactivity",99 h
same,Tmax,"[7]; Lens, L eye, radioactivity",0.25 h
same,AUClast,"[7]; Lens, R eye, radioactivity",37 ng·eq·h/g
same,Cmax,"[7]; Lens, R eye, radioactivity",2 ng·eq/g
same,"T1/2,e","[7]; Lens, R eye, radioactivity",83 h
same,Tmax,"[7]; Lens, R eye, radioactivity",0.25 h
same,AUClast,"[7]; Liver, radioactivity",88 ng·eq·h/g
same,Cmax,"[7]; Liver, radioactivity",6 ng·eq/g
same,"T1/2,e","[7]; Liver, radioactivity",13 h
same,Tmax,"[7]; Liver, radioactivity",1 h
same,AUClast,"[7]; Plasma, radioactivity",24 ng·eq·h/g
same,Cmax,"[7]; Plasma, radioactivity",1 ng·eq/g
same,"T1/2,e","[7]; Plasma, radioactivity",16 h
same,Tmax,"[7]; Plasma, radioactivity",0.5 h
same,AUClast,[7]; [17],"1,390 ng·eq·h/g"
same,Cmax,[7]; [17],80 ng·eq/g
same,"T1/2,e",[7]; [17],204 h
same,Tmax,[7]; [17],0.25 h
same,AUClast,[7]; [18],"1,298 ng·eq·h/g"
same,Cmax,[7]; [18],50 ng·eq/g
same,"T1/2,e",[7]; [18],68 h
same,Tmax,[7]; [18],0.5 h
same,AUClast,[7]; [19],51 ng·eq·h/g
same,Cmax,[7]; [19],7 ng·eq/g
same,"T1/2,e",[7]; [19],12 h
same,Tmax,[7]; [19],0.25 h
same,AUClast,[7]; [20],51 ng·eq·h/g
same,Cmax,[7]; [20],4 ng·eq/g
same,"T1/2,e",[7]; [20],15 h
same,Tmax,[7]; [20],0.25 h
same,Tmax in AH,"[7]; netarsudil 0.02% single topical ocular dose, radioactivity",8 h

# Source: publication PMC5963640 (Journal of Ocular Pharmacology and Therapeutics, 2018)
